This note sets out measurements from US11306111B2, “Organophosphate derivatives” (January Therapeutics, Inc., priority 2017, dated 2022).

The subject of this assay is BxPC-3 cells. The assay can be described thus: Cellular proliferation assay in BxPC-3 cells (Cell-Titer Glo, 120 h). The class given is cell-based. The following applies: Homo sapiens, 120 h incubation, Cell-Titer Glo luminescence. Here is the method:
Compounds are tested for their ability to impair cancer cell proliferation and/or induce cell death. For cellular proliferation studies, cultured cells are treated with the test compound for 24-120 hours. After compound treatment, cell proliferation is assessed by using methods including, but not limited to, Cell-Titer-Glo® (Promega), Alamar Blue, LIVE/DEAD® (ThermoFisher), BrdU incorporation, and live-cell imaging.
The cancer lines used include, but are not limited to, PANC-1, MiaPaCa-2, BxPC-3 (pancreatic cancer), RT112 (bladder cancer), MCF-7 (breast cancer), and A549 (non-small cell lung cancer). Gemcitabine Hydrochloride serves as a control for activity.
Protocol for the Cellular Proliferation Assay in BxPC-3 Cells
BxPC-3 (pancreatic adenocarcinoma) cell line was purchased from the American Type Culture Collection (Catalog #CRL-1687) and grown in RPMI-1640 medium (e.g. Corning #10-040-CV) with 10% Heat Inactivated Fetal Calf Serum at 37° C. and 5% CO2 (as recommended by the ATCC).
Cultures were grown in […] plates to 80% confluence, and cells were trypsinized to a single-cell suspension. Cells were then resuspended in growth medium to a density of […]. They were then plated into 96-well assay plates (Corning #3917) in a volume of 100 ul/well (2,500 cells/well). Cells were allowed to adhere to plates for 24 h at 37° C. and 5% CO2). Compounds were then added to the wells using an […] serial dilution scheme (over 9 dilutions, generally ranging from 30 μM-30 pM), and the cells were incubated for an additional 120 hours. After 120 h, 90 ul of Cell-Titer Glo reagent (Promega #G7572) was added, and the plates were read using a luminescence counter (e.g., BioTek Synergy HTX at 100 ms read time).

By EC50 is commonly meant the midpoint of the concentration-response curve. With `CCCCCCCCCCOP1(=O)OC[C@H]2O[C@@H](n3ccc(N)nc3=O)C(F)(F)[C@@H]2O1` (single isomer, unassigned) [Compound 42A], the 50% effective concentration (EC50) was below 0.001 µM. Then `CCCCCCCCCCCCCCCCOP1(=O)OC[C@H]2O[C@@H](n3ccc(N)nc3=O)C(F)(F)[C@@H]2O1` (single isomer, unassigned) [Compound 43A], with 0.001 to 0.1 µM. With `CCCCCCCCCCCCCCCCCCOP1(=O)OC[C@H]2O[C@@H](n3ccc(N)nc3=O)C(F)(F)[C@@H]2O1` (single isomer, unassigned) [Compound 44A], the half-maximal effective concentration (EC50) is 0.001 to 0.1 µM.

Take `CCCCCCCCCCCCCCCCCCCCOP1(=O)OC[C@H]2O[C@@H](n3ccc(N)nc3=O)C(F)(F)[C@@H]2O1` (single isomer, unassigned) [Compound 45A]: the concentration for a half-maximal effect (EC50) was below 1 µM. Then `CCCCCCCCCCCCCCCCCCCCCCOP1(=O)OC[C@H]2O[C@@H](n3ccc(N)nc3=O)C(F)(F)[C@@H]2O1` (single isomer, unassigned) [Compound 46A], with 1 to 25 µM; and `CCCCCCCCC(=O)O[C@@H]1[C@@H](COP(=O)(OCCCCCC)OCCCCCC)O[C@@H](n2ccc(N)nc2=O)C1(F)F` [Compound 1, (2R,3R,5R)-5-(4-amino-2-oxopyrimidin-1(2H)-yl)-2-(((bis(hexyloxy)phosphoryl)oxy)methyl)-4,4-difluorotetrahydrofuran-3-yl nonanoate], with 0.001 to 0.1 µM.

`CCCCCCCCC(=O)O[C@@H]1[C@@H](COP2(=O)OCc3ccccc3O2)O[C@@H](n2ccc(N)nc2=O)C1(F)F` (stereo partly drawn) [Compound 2, (2R,3R,5R)-5-(4-amino-2-oxopyrimidin-1(2H)-yl)-4,4-difluoro-2-(((2-oxido-4H-benzo[d][1,3,2]dioxaphosphinin-2-yl)oxy)methyl)tetrahydrofuran-3-yl nonanoate]: the EC50 is below 0.001 µM. In the case of `CCCCCCCCC(=O)O[C@@H]1[C@@H](COP(=O)(OCOC(=O)C(C)(C)C)OCOC(=O)C(C)(C)C)O[C@@H](n2ccc(N)nc2=O)C1(F)F` [Compound 3] it was below 0.001 µM; in that of `CC(C)OP(=O)(OC[C@H]1O[C@@H](n2ccc(N)nc2=O)C(F)(F)[C@@H]1OC(=O)C(C)C)OC(C)C` [Compound 16, (2R,3R,5R)-5-(4-amino-2-oxopyrimidin-1(2H)-(((diisopropoxyphosphoryl)oxy)methyl)-4,4-difluorotetrahydrofuran-3-yl isobutyrate], below 1 µM; in that of `CCCOP(=O)(OCCC)OC[C@H]1O[C@@H](n2ccc(N)nc2=O)C(F)(F)[C@@H]1OC(=O)CCC` [Compound 17, (2R,3R,5R)-5-(4-amino-2-oxopyrimidin-1(2H)-(((dipropoxyphosphoryl)oxy)methyl)-4,4-difluorotetrahydrofuran-3-yl butyrate], 1 to 25 µM. In the case of `CCCCCOP(=O)(OCCCCC)OC[C@H]1O[C@@H](n2ccc(N)nc2=O)C(F)(F)[C@@H]1OC(=O)CCCCC` [Compound 18, (2R,3R,5R)-5-(4-amino-2-oxopyrimidin-1(2H)-yl)-2-(((bis(pentyloxy)phosphoryl)oxy)methyl)-4,4-difluorotetrahydrofuran-3-yl hexanoate] it was below 1 µM; in that of `CCCCCCCOP(=O)(OCCCCCCC)OC[C@H]1O[C@@H](n2ccc(N)nc2=O)C(F)(F)[C@@H]1OC(=O)CCCCCCC` [Compound 19, (2R,3R,5R)-5-(4-amino-2-oxopyrimidin-1(2H)-yl)-2-(((bis(heptyloxy)phosphoryl)oxy)methyl)-4,4-difluorotetrahydrofuran-3-yl octanoate], below 1 µM; in that of `CCCCCCCCCCCCCCCCC(=O)O[C@@H]1[C@@H](COP(=O)(OCCCCCCCC)OCCCCCCCC)O[C@@H](n2ccc(N)nc2=O)C1(F)F` [Compound 20, (2R,3R,5R)-5-(4-amino-2-oxopyrimidin-1(2H)-yl)-2-(((bis(octyloxy)phosphoryl)oxy)methyl)-4,4-difluorotetrahydrofuran-3-yl heptadecanoate], 1 to 25 µM.

Turning to `CCCCCCCCCCOP(=O)(OCCCCCCCCCC)OC[C@H]1O[C@@H](n2ccc(N)nc2=O)C(F)(F)[C@@H]1OC(=O)CCCCCCCCCC` [Compound 21, (2R,3R,5R)-5-(4-amino-2-oxopyrimidin-1(2H)-yl)-2-(((bis(decyloxy)phosphoryl)oxy)methyl)-4,4-difluorotetrahydrofuran-3-yl undecanoate], the EC50 was 1 to 25 µM. In the case of `CCCCCCCCCCCCOP(=O)(OCCCCCCCCCCCC)OC[C@H]1O[C@@H](n2ccc(N)nc2=O)C(F)(F)[C@@H]1OC(=O)CCCCCCCCCCCC` [Compound 22, (2R,3R,5R)-5-(4-amino-2-oxopyrimidin-1(2H)-yl)-2-(((bis(dodecyloxy)phosphoryl)oxy)methyl)-4,4-difluorotetrahydrofuran-3-yl tridecanoate] it was 1 to 25 µM. `CCCCCCCCCCCCCCOP(=O)(OCCCCCCCCCCCCCC)OC[C@H]1O[C@@H](n2ccc(N)nc2=O)C(F)(F)[C@@H]1OC(=O)CCCCCCCCCCCCCC` [Compound 23, (2R,3R,5R)-5-(4-amino-2-oxopyrimidin-1(2H)-yl)-2-(((bis(tetradecyloxy)phosphoryl)oxy)methyl)-4,4-difluorotetrahydrofuran-3-yl pentadecanoate]: the EC50 was 1 to 25 µM. In the case of `Nc1ccn([C@@H]2O[C@H](COP(=O)(OC3CCCCC3)OC3CCCCC3)[C@@H](OC(=O)C3CCCCC3)C2(F)F)c(=O)n1` [Compound 24, (2R,3R,5R)-5-(4-amino-2-oxopyrimidin-1(2H)-(((bis(cyclohexyloxy)phosphoryl)oxy)methyl)-4,4-difluorotetrahydrofuran-3-yl cyclohexanecarboxylate], the EC50 was 1 to 25 µM. In the case of `Nc1ccn([C@@H]2O[C@H](COP(=O)(Oc3ccccc3)Oc3ccccc3)[C@@H](OC(=O)c3ccccc3)C2(F)F)c(=O)n1` [Compound 25, (2R,3R,5R)-5-(4-amino-2-oxopyrimidin-1(2H)-yl)-2-(((diphenoxyphosphoryl)oxy)methyl)-4,4-difluorotetrahydrofuran-3-yl benzoate] it was 1 to 25 µM; in that of `CCCCCCCCCCCCC(=O)O[C@@H]1[C@@H](COP2(=O)OCc3ccccc3O2)O[C@@H](n2ccc(N)nc2=O)C1(F)F` (stereo partly drawn) [Compound 28, (2R,3R,5R)-5-(4-amino-2-oxopyrimidin-1(2H)-yl)-4,4-difluoro-2-(((2-oxido-4H-benzo[d][1,3,2]dioxaphosphinin-2-yl)oxy)methyl)tetrahydrofuran-3-yl tridecanoate], below 0.001 µM. As for `CCCCCCCCCCCCCCC(=O)O[C@@H]1[C@@H](COP2(=O)OCc3ccccc3O2)O[C@@H](n2ccc(N)nc2=O)C1(F)F` (stereo partly drawn) [Compound 29, (2R,3R,5R)-5-(4-amino-2-oxopyrimidin-1(2H)-yl)-4,4-difluoro-2-(((2-oxido-4H-benzo[d][1,3,2]dioxaphosphinin-2-yl)oxy)methyl)tetrahydrofuran-3-yl pentadecanoate], the EC50 is below 0.001 µM. For the compound `CCCCCCCCCCCCCCCCC(=O)O[C@@H]1[C@@H](COP2(=O)OCc3ccccc3O2)O[C@@H](n2ccc(N)nc2=O)C1(F)F` (stereo partly drawn) [Compound 30, (2R,3R,5R)-5-(4-amino-2-oxopyrimidin-1(2H)-yl)-4,4-difluoro-2-(((2-oxido-4H-benzo[d][1,3,2]dioxaphosphinin-2-yl)oxy)methyl)tetrahydrofuran-3-yl heptadecanoate], the EC50 is below 0.001 µM. As for `CCCCCCCCCCCCCCCCC(=O)O[C@@H]1[C@@H](COP2(=O)OCc3cccc(C)c3O2)O[C@@H](n2ccc(N)nc2=O)C1(F)F` (stereo partly drawn) [Compound 31, (2R,3R,5R)-5-(4-amino-2-oxopyrimidin-1(2H)-yl)-4,4-difluoro-2-(((8-methyl-2-oxido-4H-benzo[d][1,3,2]dioxaphosphinin-2-yl)oxy)methyl)tetrahydrofuran-3-yl heptadecanoate], the 50% effective concentration (EC50) was below 0.001 µM. Then `CCCCCCCCCCCCCCCCC(=O)O[C@@H]1[C@@H](COP2(=O)OCc3c(C)cccc3O2)O[C@@H](n2ccc(N)nc2=O)C1(F)F` (stereo partly drawn) [Compound 32, (2R,3R,5R)-5-(4-amino-2-oxopyrimidin-1(2H)-yl)-4,4-difluoro-2-(((5-methyl-2-oxido-4H-benzo[d][1,3,2]dioxaphosphinin-2-yl)oxy)methyl)tetrahydrofuran-3-yl heptadecanoate], with below 0.001 µM; and `CCCCCCCCCCCCC(=O)O[C@@H]1[C@@H](COP(=O)(OCOC(=O)C(C)(C)C)OCOC(=O)C(C)(C)C)O[C@@H](n2ccc(N)nc2=O)C1(F)F` [Compound 33], with below 0.001 µM.

In the case of `CCCCCCCCCCCCCCC(=O)O[C@@H]1[C@@H](COP(=O)(OCOC(=O)C(C)(C)C)OCOC(=O)C(C)(C)C)O[C@@H](n2ccc(N)nc2=O)C1(F)F` [Compound 34], the EC50 is below 0.001 µM. In the case of `CCCCCCCCCCCCCCCCC(=O)O[C@@H]1[C@@H](COP(=O)(OCOC(=O)C(C)(C)C)OCOC(=O)C(C)(C)C)O[C@@H](n2ccc(N)nc2=O)C1(F)F` [Compound 35] it was below 0.001 µM; in that of `CCCCCCCCCCCCCCCCCCC(=O)O[C@@H]1[C@@H](COP(=O)(OCOC(=O)C(C)(C)C)OCOC(=O)C(C)(C)C)O[C@@H](n2ccc(N)nc2=O)C1(F)F` [Compound 36], below 0.001 µM.
